Results on two molecules are retold here after patent US20080193913A1, “Diluent, methods of manufacture and use” (Millipore Corporation, priority 2002, published 2008).

The series is described as follows: Non-specific drug binding (NSB) to 96-well plates, drug in phosphate buffer. The conditions noted are these: time course study on PP and PTFE plates using LC-MS (data not shown). The series is classed as physicochemical. The protocol: The drug NSB (10 nM drug in phosphate buffer) to other 96-well plates made from different plastics was also tested.

For the molecule `C[C@]12CC[C@H]3[C@@H](CCC4=CC(=O)CC[C@@]43C)[C@@H]1CC[C@@H]2O` [testosterone], the “drug NSB, dependence on plate material” value is given as “independent of plate material”.

Regarding `CC(=O)O[C@H]1C(=O)[C@@]2(C)[C@H]([C@H](OC(=O)c3ccccc3)[C@]3(O)C[C@H](OC(=O)[C@H](O)[C@@H](NC(=O)c4ccccc4)c4ccccc4)C(C)=C1C3(C)C)[C@]1(OC(C)=O)CO[C@@H]1C[C@@H]2O` [taxol], the “drug NSB, dependence on plate material” value was “independent of plate material”.
